In one experiment the target is MNK1 (Homo sapiens, UniProt Q9BUB5). Put plainly: In vitro MNK kinase assay (Caliper LabChip mobility shift). The experiment is classed as biochemical. The following applies: enzymatic, 1.2 mM ATP; read-out: IC50 Mnk1.
The next experiment deals with MNK2 (Homo sapiens (Human), UniProt Q9HBH9). The experiment is described as above. The experiment is classed as biochemical. The following applies: enzymatic, 250 μM ATP; read-out: IC50 Mnk2.

Results on 31 compounds are retold here after US9908886B2 (Agency for Science, Technology and Research, priority 2012, dated 2018).

Sequence of MNK2 (Q9HBH9 84-388): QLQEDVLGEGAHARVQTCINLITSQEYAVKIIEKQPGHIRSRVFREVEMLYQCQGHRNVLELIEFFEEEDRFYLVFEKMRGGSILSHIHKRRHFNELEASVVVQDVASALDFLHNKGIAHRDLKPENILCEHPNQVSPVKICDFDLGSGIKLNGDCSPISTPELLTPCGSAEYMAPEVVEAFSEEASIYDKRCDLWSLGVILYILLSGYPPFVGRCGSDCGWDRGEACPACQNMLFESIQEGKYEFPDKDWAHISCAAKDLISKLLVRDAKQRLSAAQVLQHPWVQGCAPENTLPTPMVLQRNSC

As for `COc1cc(C(=O)N2CCN(C)CC2)ccc1-c1ccc2ncc(-c3ccc(C#N)cc3)n2n1` [Example 78, 4-(6-(2-methoxy-4-(4-methylpiperazine-1-carbonyl)phenyl)imidazo[1,2-b]pyridazin-3-yl)benzonitrile], the IC50 at MNK1 and at MNK2 was less than 100 nM each time.

Regarding `CN1CCN(C(=O)c2ccc(-c3ccc4ncc(-c5ccc(C#N)cc5)n4n3)cc2[N+](=O)[O-])CC1` [Example 79, 4-(6-(4-(4-methylpiperazine-1-carbonyl)-3-nitrophenyl)imidazo[1,2-b]pyridazin-3-yl)benzonitrile], the IC50 on MNK1 and on MNK2 was less than 100 nM each time.

On to `CC(=O)Nc1cc(-c2ccc3ncc(-c4ccc(C#N)cc4)n3n2)ccc1C(=O)N1CCC(N(C)C)CC1` [Example 81, N-(5-(3-(4-cyanophenyl)imidazo[1,2-b]pyridazin-6-yl)-2-(4-(dimethylamino)piperidine-1-carbonyl)phenyl)acetamide], for which the IC50 on MNK1 and at MNK2 was less than 100 nM each time.

`CN1CCN(C(=O)c2ccc(-c3ccc4ncc(-c5ccc6c(c5)CC(=O)N6)n4n3)cc2)CC1` [Example 85, 5-(6-(4-(4-methylpiperazine-1-carbonyl)phenyl)imidazo[1,2-b]pyridazin-3-yl)indolin-2-one]: the IC50 at MNK1 and at MNK2 was less than 100 nM throughout.

Regarding `CN1CCN(C(=O)c2ccc(-c3ccc4ncc(-c5ccc6[nH]ncc6c5)n4n3)cc2)CC1` [Example 86, (4-(3-(1H-indazol-5-yl)imidazo[1,2-b]pyridazin-6-yl)phenyl)(4-methylpiperazin-1-yl)methanone], the IC50 on MNK1 and at MNK2 was less than 100 nM throughout.

Turning to `CN1CCN(C(=O)c2ccc(-c3ccc4ncc(-c5ccc6[nH]cnc6c5)n4n3)cc2)CC1` [Example 87, (4-(3-(1H-benzo[d]imidazol-5-yl)imidazo[1,2-b]pyridazin-6-yl)phenyl)(4-methylpiperazin-1-yl)methanone], the IC50 at MNK1 and at MNK2 was less than 100 nM in each case.

`CN1CCN(C2CCN(C(=O)c3ccc(-c4ccc5ncc(-c6ccc7c(c6)CC(=O)N7)n5n4)cc3)CC2)CC1` [Example 89, 5-(6-(4-(4-(4-methylpiperazin-1-yl)piperidine-1-carbonyl)phenyl)imidazol[1,2-b]pyridazin-3-yl)indolin-2-one]: the IC50 at MNK1 and on MNK2 was less than 100 nM throughout.

As to `O=C1Cc2cc(-c3cnc4ccc(-c5ccc(C(=O)N6CCC(N7CCOCC7)CC6)cc5)nn34)ccc2N1` [Example 94, 5-(6-(4-(4-morpholinopiperidine-1-carbonyl)phenyl)imidazo[1,2-b]pyridazin-3-yl)indolin-2-one], the IC50 at MNK1 and at MNK2 was less than 100 nM each time.

With `CN1CCN(C(=O)c2ccc(-c3ccc4ncc(-c5ccc(C#N)cc5)n4c3)cc2)CC1` [Example 95, 4-(6-(4-(4-Methylpiperazine-1-carbonyl)phenyl)imidazo[1,2-a]pyridin-3-yl)benzonitrile], the IC50 on MNK1 and at MNK2 was less than 100 nM each time.

Consider `N#Cc1ccc(-c2cnc3ccc(-c4ccc(C(=O)N5CCCOCC5)cc4)cn23)cc1` [Example 97], for which the IC50 at MNK1 and on MNK2 was less than 100 nM each time.

As for `CCN1CCN(C(=O)c2ccc(-c3ccc4ncc(-c5ccc(C#N)cc5)n4c3)cc2)CC1` [Example 98, 4-(6-(4-(4-ethylpiperazine-1-carbonyl)phenyl)imidazo[1,2-a]pyridin-3-yl)benzonitrile], the IC50 at MNK1 and at MNK2 was less than 100 nM in each case.

Regarding `CC(=O)NC1(C)CCN(C(=O)c2ccc(-c3ccc4ncc(-c5ccc(C#N)cc5)n4c3)cc2)CC1` [Example 99, N-(1-(4-(3-(4-cyanophenyl)imidazo[1,2-a]pyridin-6-yl)benzoyl)-4-methylpiperidin-4-yl)acetamide], the IC50 at MNK1 and at MNK2 was less than 100 nM in each case.

In the case of `CCN(CC)C1(C)CCN(C(=O)c2ccc(-c3ccc4ncc(-c5ccc(C#N)cc5)n4c3)cc2)CC1` [Example 100, 4-(6-(4-(4-(diethylamino)-4-methylpiperidine-1-carbonyl)phenyl)imidazo[1,2-a]pyridin-3-yl)benzonitrile], the IC50 on MNK1 and on MNK2 was less than 100 nM each time.

For `CN(CC(=O)N1CCOCC1)C(=O)c1ccc(-c2ccc3ncc(-c4ccc(C#N)cc4)n3c2)cc1` [Example 101, 4-(3-(4-cyanophenyl)imidazo[1,2-a]pyridin-6-yl)-N-methyl-N-(2-morpholino-2-oxoethyl)benzamide], the IC50 at MNK1 and on MNK2 was less than 100 nM each time.

As to `N#Cc1ccc(-c2cnc3ccc(-c4ccc(C(=O)N5CCNC(=O)C5)cc4)cn23)cc1` [Example 102, 4-(6-(4-(3-oxopiperazine-1-carbonyl)phenyl)imidazo[1,2-a]pyridin-3-yl)benzonitrile], the IC50 at MNK1 and at MNK2 was less than 100 nM in each case.

For `CN1CCCN(C(=O)c2ccc(-c3ccc4ncc(-c5ccc(C#N)cc5)n4c3)cc2)CC1` [Example 103, 4-(6-(4-(4-methyl-1,4-diazepane-1-carbonyl)phenyl)imidazo[1,2-a]pyridin-3-yl)benzonitrile], the IC50 at MNK1 and at MNK2 was less than 100 nM in each case.

For `CN1CCC(C2CCN(C(=O)c3ccc(-c4ccc5ncc(-c6ccc(C#N)cc6)n5c4)cc3)CC2)CC1` [Example 105, 4-(6-(4-(1′-methyl-4,4′-bipiperidine-1-carbonyl)phenyl)imidazo[1,2-a]pyridin-3-yl)benzonitrile], the IC50 at MNK1 and on MNK2 was less than 100 nM throughout.

As for `CC1(O)CCN(C(=O)c2ccc(-c3ccc4ncc(-c5ccc(C#N)cc5)n4c3)cc2)CC1` [Example 106, 4-(6-(4-(4-hydroxy-4-methylpiperidine-1-carbonyl)phenyl)imidazo[1,2-a]pyridin-3-yl)benzonitrile], the IC50 at MNK1 and at MNK2 was less than 100 nM each time.

With `N#Cc1ccc(-c2cnc3ccc(-c4ccc(C(=O)N5CCCNCC5)cc4)cn23)cc1` [Example 107, 4-(6-(4-(1,4-diazepane-1-carbonyl)phenyl)imidazo[1,2-a]pyridin-3-yl)benzonitrile], the concentration for half-maximal inhibition (IC50) on MNK1 and on MNK2 was less than 100 nM throughout.

As to `N#Cc1ccc(-c2cnc3ccc(-c4ccc(C(=O)N5CCC(N)CC5)cc4)cn23)cc1` [Example 109, 4-(6-(4-(4-aminopiperidine-1-carbonyl)phenyl)imidazo[1,2-a]pyridin-3-yl)benzonitrile], the IC50 on MNK1 and on MNK2 was less than 100 nM throughout.

As for `CS(=O)(=O)NC1CCN(C(=O)c2ccc(-c3ccc4ncc(-c5ccc(C#N)cc5)n4c3)cc2)CC1` [Example 111, N-(1-(4-(3-(4-cyanophenyl)imidazo[1,2-a]pyridin-6-yl)benzoyl)piperidin-4-yl)methanesulfonamide], the IC50 on MNK1 and at MNK2 was less than 100 nM throughout.

With `CN(C)C1CCN(C(=O)c2ccc(-c3ccc4ncc(-c5ccc(C#N)cc5)n4c3)cc2)CC1` [Example 112, 4-(6-(4-(4-(dimethylamino)piperidine-1-carbonyl)phenyl)imidazo[1,2-a]pyridin-3-yl)benzonitrile], the IC50 on MNK1 and at MNK2 was less than 100 nM throughout.

For `CCC1(N)CCN(C(=O)c2ccc(-c3ccc4ncc(-c5ccc(C#N)cc5)n4c3)cc2)CC1` [Example 113, 4-(6-(4-(4-amino-4-ethylpiperidine-1-carbonyl)phenyl)imidazo[1,2-a]pyridin-3-yl)benzonitrile], the IC50 on MNK1 and at MNK2 was less than 100 nM throughout.

Regarding `N#Cc1ccc(-c2cnc3ccc(-c4ccc(C(=O)NCC(=O)N5CCOCC5)cc4)cn23)cc1` [Example 115, 4-(3-(4-cyanophenyl)imidazo[1,2-a]pyridin-6-yl)-N-(2-morpholino-2-oxoethyl)benzamide], the IC50 on MNK1 and on MNK2 was less than 1000 nM in each case.

With `N#Cc1ccc(-c2cnc3ccc(-c4ccc(C(=O)NCCN5CCOCC5)cc4)cn23)cc1` [Example 116, 4-(3-(4-cyanophenyl)imidazo[1,2-a]pyridin-6-yl)-N-(2-morpholinoethyl)benzamide], the 50% inhibitory concentration (IC50) at MNK1 and at MNK2 was less than 1000 nM in each case.

`N#Cc1ccc(-c2cnc3ccc(-c4ccc(C(=O)N5CCC6(CCCCN6)CC5)cc4)cn23)cc1` [Example 117, 4-(6-(4-(1,9-diazaspiro[5.5]undecane-9-carbonyl)phenyl)imidazo[1,2-a]pyridin-3-yl)benzonitrile]: the IC50 on MNK1 and at MNK2 was less than 100 nM in each case.

For the compound `CC(=O)N1CCCCC12CCN(C(=O)c1ccc(-c3ccc4ncc(-c5ccc(C#N)cc5)n4c3)cc1)CC2` [Example 118, 4-(6-(4-(1-acetyl-1,9-diazaspiro[5.5]undecane-9-carbonyl)phenyl)imidazo[1,2-a]pyridin-3-yl)benzonitrile], the IC50 on MNK1 and at MNK2 was less than 100 nM each time.

`CN1CCCCC12CCN(C(=O)c1ccc(-c3ccc4ncc(-c5ccc(C#N)cc5)n4c3)cc1)CC2` [Example 119, 4-(6-(4-(1-methyl-1,9-diazaspiro[5.5]undecane-9-carbonyl)phenyl)imidazo[1,2-a]pyridin-3-yl)benzonitrile]: the IC50 at MNK1 and on MNK2 was less than 100 nM each time.

`CN(C(=O)c1ccc(-c2ccc3ncc(-c4ccc(C#N)cc4)n3c2)cc1)c1ccncc1` [Example 122, 4-(3-(4-cyanophenyl)imidazo[1,2-a]pyridin-6-yl)-N-methyl-N-(pyridin-4-yl)benzamide]: the IC50 at MNK1 and at MNK2 was less than 1000 nM throughout.

For the compound `N#Cc1ccc(-c2cnc3ccc(-c4ccc(C(=O)N5CCC(CN)CC5)cc4)cn23)cc1` [Example 123, 4-(6-(4-(4-(aminomethyl)piperidine-1-carbonyl)phenyl)imidazo[1,2-a]pyridin-3-yl)benzonitrile], the IC50 on MNK1 and on MNK2 was less than 100 nM in each case.

With `N#Cc1ccc(-c2cnc3ccc(-c4ccc(C(=O)N5CCC(CCN)CC5)cc4)cn23)cc1` [Example 124, 4-(6-(4-(4-(2-aminoethyl)piperidine-1-carbonyl)phenyl)imidazo[1,2-a]pyridin-3-yl)benzonitrile], the IC50 at MNK1 and on MNK2 was less than 100 nM in each case.
